Test results taken from ChEMBL document CHEMBL1212835, “Identification of a potent and noncytotoxic inhibitor of melanin production” (Bioorg Med Chem, 2010).
Values joined by “and” are separate entries in the source; they are usually repeats but may differ in a detail not shown here. Equal values may be shown once. Active and inactive are the calls of the source. The calls are words filed in the database; no cut-off is given here.

System: not listed separately
Experiment: Cytotoxicity against mouse Melan-a cells assessed as cell viability at 30 uM
Format: cell-based
Conditions: Melan-a cells, read-out: Activity
With `CCc1ccc(C(=O)Nc2ccc(C(=O)OC)cc2)cc1` the viability at 30 µM was 2%. Compound `CCc1ccc(C(=O)Nc2cc(OC)cc(OC)c2)cc1` has a viability at 30 µM of 10.1%. Work on `Cc1cccc(NC(=O)c2ccco2)c1` yielded a viability at 30 µM of -1.3%. For `Cc1cccc(NC(=O)c2ccccc2C)c1`, the viability at 30 µM was 5.8%. `COC(=O)c1ccccc1NC(=O)c1ccc(OC)cc1` gave a viability at 30 µM of 31.1%. Work on `COc1cccc(NC(=O)c2cccc(C)c2)c1` yielded a viability at 30 µM of -0.3%. `CCc1ccc(C(=O)Nc2ccc(C(C)=O)cc2)cc1` gave a viability at 30 µM of 3.4%. Work on `CCCCOc1ccc(NC(=O)c2cccc(OC)c2)cc1` yielded a viability at 30 µM of 19.1%. In the case of `COc1ccc(OC)c(NC(=O)c2ccc(C)cc2)c1`, the viability at 30 µM was -3.2%. In the case of `COc1ccc(C(=O)Nc2ccccc2OC)cc1`, the viability at 30 µM was -2.6%. Work on `CC(=O)c1ccc(NC(=O)c2ccccc2C)cc1` yielded a viability at 30 µM of 0.1%. For `COC(=O)c1cccc(NC(=O)c2ccc(C#N)cc2)c1`, the viability at 30 µM was 0.8%. For `COc1ccccc1NC(=O)c1ccco1`, the viability at 30 µM was -5.4%. `COc1ccc(NC(=O)c2cccc(C)c2)cc1` gave a viability at 30 µM of -0.4%. `COc1cccc(NC(=O)c2ccco2)c1` showed a viability at 30 µM of 0.4%. Compound `COc1ccc(C(=O)Nc2cc(C(F)(F)F)cc(C(F)(F)F)c2)cc1` has a viability at 30 µM of 21%. Compound `CCCCOc1ccc(NC(=O)c2ccco2)cc1` has a viability at 30 µM of 3.7%. Work on `Cc1cc(C)cc(NC(=O)c2cccc(C)c2)c1` yielded a viability at 30 µM of 6%. For `COc1ccc(OC)c(NC(=O)c2ccco2)c1`, the viability at 30 µM was -17%. `COc1ccc(NC(=O)c2ccccc2C)cc1` showed a viability at 30 µM of 12.8%. In the case of `COc1cccc(C(=O)Nc2ccccc2OC)c1`, the viability at 30 µM was 10.1%. Compound `COC(=O)c1cccc(NC(=O)c2ccc(OC)cc2)c1` has a viability at 30 µM of 18.8%. With `COc1cccc(C(=O)Nc2ccc(OC)cc2OC)c1` the viability at 30 µM was -3.9%. Compound `COc1ccc(NC(=O)c2cccc(OC)c2)cc1` has a viability at 30 µM of 0.5%. In the case of `COC(=O)c1ccccc1NC(=O)c1ccc(C)cc1`, the viability at 30 µM was 20.1%. With `COc1ccc(C(=O)Nc2cccc(OC)c2)cc1` the viability at 30 µM was 0.6%. `CCc1ccc(C(=O)Nc2cc(C(F)(F)F)cc(C(F)(F)F)c2)cc1` showed a viability at 30 µM of 16.5%. `COC(=O)c1ccccc1NC(=O)c1ccccc1C` showed a viability at 30 µM of 9.7%. `COc1cc(NC(=O)c2ccc(C)cc2)cc(OC)c1` gave a viability at 30 µM of 19.2%. Compound `COC(=O)c1ccc(NC(=O)c2ccc(OC)cc2)cc1` has a viability at 30 µM of -5.6%. `COc1ccc(C(=O)Nc2ccc(OC)cc2OC)cc1` showed a viability at 30 µM of -9.4%. `COc1ccc(NC(=O)c2cccc(C)c2)c(OC)c1` gave a viability at 30 µM of 3.2%. In the case of `Cc1cc(C)cc(NC(=O)c2ccco2)c1`, the viability at 30 µM was 14.2%. Work on `COc1cccc(C(=O)Nc2ccc(C(C)=O)cc2)c1` yielded a viability at 30 µM of -5%. Work on `Cc1cc(C)cc(NC(=O)c2ccc(C#N)cc2)c1` yielded a viability at 30 µM of 31.6%. In the case of `CCCCOc1ccc(NC(=O)c2ccc(OC)cc2)cc1`, the viability at 30 µM was 1%. Compound `COc1ccccc1NC(=O)c1cccc(C)c1` has a viability at 30 µM of 11.1%. `COc1cc(NC(=O)c2cccc(C)c2)cc(OC)c1` showed a viability at 30 µM of -12.6%. `COC(=O)c1ccc(NC(=O)c2ccc(C#N)cc2)cc1` showed a viability at 30 µM of 14.2%. `Cc1ccc(NC(=O)c2cccc(C)c2)cc1` showed a viability at 30 µM of -2.4%. Work on `COc1cc(NC(=O)c2ccccc2C)cc(OC)c1` yielded a viability at 30 µM of 6.4%. Compound `COc1cccc(C(=O)Nc2cc(C(F)(F)F)cc(C(F)(F)F)c2)c1` has a viability at 30 µM of 9%. `Cc1cc(C)cc(NC(=O)c2ccccc2C)c1` showed a viability at 30 µM of 25.6%. For `COc1cccc(C(=O)Nc2ccc(C)cc2)c1`, the viability at 30 µM was 7.5%. Work on `COc1cc(NC(=O)c2ccc(C#N)cc2)cc(OC)c1` yielded a viability at 30 µM of 9.6%. Compound `COc1cc(NC(=O)c2cccc(OC)c2)cc(OC)c1` has a viability at 30 µM of 9.6%. `COC(=O)c1ccc(NC(=O)c2ccccc2C)cc1` gave a viability at 30 µM of 0.8%. `COc1ccc(C(=O)Nc2cc(C)cc(C)c2)cc1` showed a viability at 30 µM of 31.9%. With `COC(=O)c1ccc(NC(=O)c2cccc(C)c2)cc1` the viability at 30 µM was 12.9%. For `COc1ccc(OC)c(NC(=O)c2cccc(C)c2)c1`, the viability at 30 µM was 0.3%. For `COc1cccc(NC(=O)c2ccc(C#N)cc2)c1`, the viability at 30 µM was -9.4%. With `Cc1cccc(NC(=O)c2cccc(C)c2)c1` the viability at 30 µM was -0.1%. `COC(=O)c1ccccc1NC(=O)c1ccc(C#N)cc1` showed a viability at 30 µM of 8%. For `CCc1ccc(C(=O)Nc2ccccc2OC)cc1`, the viability at 30 µM was 13.5%. Work on `COc1ccccc1NC(=O)c1ccc(C#N)cc1` yielded a viability at 30 µM of -3.1%. Compound `Cc1ccc(C(=O)Nc2cccc(C)c2)cc1` has a viability at 30 µM of 14.3%. `COc1cccc(NC(=O)c2cccc(OC)c2)c1` gave a viability at 30 µM of -8.4%. `Cc1ccc(NC(=O)c2ccco2)cc1` showed a viability at 30 µM of 7.9%. With `CCCCOc1ccc(NC(=O)c2ccc(CC)cc2)cc1` the viability at 30 µM was -10.8%. Work on `COC(=O)c1cccc(NC(=O)c2ccco2)c1` yielded a viability at 30 µM of 0.4%. Compound `COc1ccc(C(=O)Nc2ccc(C)cc2)cc1` has a viability at 30 µM of 0.7%. In the case of `CCc1ccc(C(=O)Nc2cc(OC)ccc2OC)cc1`, the viability at 30 µM was -19.8%. Compound `N#Cc1ccc(C(=O)Nc2cc(C(F)(F)F)cc(C(F)(F)F)c2)cc1` has a viability at 30 µM of 33.3%. With `CC(=O)c1ccc(NC(=O)c2ccco2)cc1` the viability at 30 µM was -2.6%. With `CC(=O)c1ccc(NC(=O)c2ccc(C)cc2)cc1` the viability at 30 µM was 11.2%. Work on `COc1ccc(NC(=O)c2ccc(C)cc2)c(OC)c1` yielded a viability at 30 µM of 14.4%. For `Cc1cccc(NC(=O)c2ccc(C#N)cc2)c1`, the viability at 30 µM was 11.1%. `COc1cccc(C(=O)Nc2cccc(C)c2)c1` gave a viability at 30 µM of 12%. For `COC(=O)c1ccc(NC(=O)c2ccco2)cc1`, the viability at 30 µM was -8.4%. With `COc1ccc(NC(=O)c2ccco2)c(OC)c1` the viability at 30 µM was -24.1%. In the case of `CCc1ccc(C(=O)Nc2ccc(OC)cc2)cc1`, the viability at 30 µM was -9.9%. `COc1ccc(NC(=O)c2ccc(C)cc2)cc1` showed a viability at 30 µM of 4.9%. With `COC(=O)c1cccc(NC(=O)c2ccc(C)cc2)c1` the viability at 30 µM was 16.4%. `CCc1ccc(C(=O)Nc2ccc(C)cc2)cc1` showed a viability at 30 µM of 1.8%. Compound `CCCCOc1ccc(NC(=O)c2ccc(C)cc2)cc1` has a viability at 30 µM of -2.4%. Compound `COC(=O)c1ccc(NC(=O)c2ccc(C)cc2)cc1` has a viability at 30 µM of 11.2%. Compound `Cc1ccc(NC(=O)c2ccccc2C)cc1` has a viability at 30 µM of -0.2%. In the case of `CCCCOc1ccc(NC(=O)c2ccccc2C)cc1`, the viability at 30 µM was 9.9%. In the case of `COC(=O)c1ccc(NC(=O)c2cccc(OC)c2)cc1`, the viability at 30 µM was 13.7%. `O=C(Nc1cc(C(F)(F)F)cc(C(F)(F)F)c1)c1ccco1` gave a viability at 30 µM of 31.9%. With `Cc1cccc(C(=O)Nc2cc(C(F)(F)F)cc(C(F)(F)F)c2)c1` the viability at 30 µM was -2.3%. Compound `CCc1ccc(C(=O)Nc2cccc(OC)c2)cc1` has a viability at 30 µM of 6.3%. In the case of `CCc1ccc(C(=O)Nc2cccc(C(=O)OC)c2)cc1`, the viability at 30 µM was 37%. Work on `CCc1ccc(C(=O)Nc2cccc(C)c2)cc1` yielded a viability at 30 µM of -2.2%. Work on `COc1cccc(NC(=O)c2ccccc2C)c1` yielded a viability at 30 µM of 13.4%. With `COC(=O)c1ccccc1NC(=O)c1ccco1` the viability at 30 µM was -2.3%. Compound `COc1cc(NC(=O)c2ccco2)cc(OC)c1` has a viability at 30 µM of -1.3%. Work on `COc1ccc(OC)c(NC(=O)c2ccc(C#N)cc2)c1` yielded a viability at 30 µM of -1.7%. `CCCCOc1ccc(NC(=O)c2cccc(C)c2)cc1` gave a viability at 30 µM of 4.8%. For `COc1ccc(C(=O)Nc2cccc(C)c2)cc1`, the viability at 30 µM was -1.7%. With `COC(=O)c1cccc(NC(=O)c2cccc(C)c2)c1` the viability at 30 µM was 10.5%. For `COC(=O)c1ccccc1NC(=O)c1cccc(OC)c1`, the viability at 30 µM was 11.1%. In the case of `COC(=O)c1cccc(NC(=O)c2cccc(OC)c2)c1`, the viability at 30 µM was 20.1%. Work on `COc1ccc(NC(=O)c2ccccc2C)c(OC)c1` yielded a viability at 30 µM of -3.5%. In the case of `COc1ccc(OC)c(NC(=O)c2ccccc2C)c1`, the viability at 30 µM was 8.6%. `COC(=O)c1ccccc1NC(=O)c1cccc(C)c1` showed a viability at 30 µM of 29.6%. `Cc1ccc(C(=O)Nc2cc(C(F)(F)F)cc(C(F)(F)F)c2)cc1` gave a viability at 30 µM of 0.3%. With `COc1ccccc1NC(=O)c1ccccc1C` the viability at 30 µM was 7%. With `COc1cccc(NC(=O)c2ccc(C)cc2)c1` the viability at 30 µM was 2.7%. Work on `COc1cccc(C(=O)Nc2cc(C)cc(C)c2)c1` yielded a viability at 30 µM of 32%. For `COc1ccccc1NC(=O)c1ccc(C)cc1`, the viability at 30 µM was 18.5%. Work on `Cc1ccc(NC(=O)c2ccc(C)cc2)cc1` yielded a viability at 30 µM of 13.9%. With `COc1ccc(NC(=O)c2ccc(C#N)cc2)cc1` the viability at 30 µM was 8.8%. `COc1ccc(NC(=O)c2ccc(OC)cc2)cc1` showed a viability at 30 µM of -10.6%. Work on `CCc1ccc(C(=O)Nc2ccc(OC)cc2OC)cc1` yielded a viability at 30 µM of -6.5%. `COc1cccc(C(=O)Nc2cc(OC)ccc2OC)c1` gave a viability at 30 µM of 17.8%. For `COc1ccc(C(=O)Nc2cc(OC)cc(OC)c2)cc1`, the viability at 30 µM was 13.6%. For `COC(=O)c1cccc(NC(=O)c2ccccc2C)c1`, the viability at 30 µM was 4.6%. With `Cc1ccccc1C(=O)Nc1cc(C(F)(F)F)cc(C(F)(F)F)c1` the viability at 30 µM was 15.1%. Compound `Cc1ccc(NC(=O)c2ccc(C#N)cc2)cc1` has a viability at 30 µM of 10.9%. In the case of `CC(=O)c1ccc(NC(=O)c2cccc(C)c2)cc1`, the viability at 30 µM was -5.9%. Compound `COc1ccc(C(=O)Nc2ccc(C(C)=O)cc2)cc1` has a viability at 30 µM of 0.7%. For `Cc1ccc(C(=O)Nc2cc(C)cc(C)c2)cc1`, the viability at 30 µM was 30.9%. In the case of `COc1ccc(NC(=O)c2ccco2)cc1`, the viability at 30 µM was 13.6%. With `CC(=O)c1ccc(NC(=O)c2ccc(C#N)cc2)cc1` the viability at 30 µM was 6.9%. For `COc1ccc(NC(=O)c2ccc(C#N)cc2)c(OC)c1`, the viability at 30 µM was 7.2%. `COc1ccc(C(=O)Nc2cc(OC)ccc2OC)cc1` showed a viability at 30 µM of -8.3%. `CCc1ccc(C(=O)Nc2ccccc2C(=O)OC)cc1` gave a viability at 30 µM of 18.9%. `CCCCOc1ccc(NC(=O)c2ccc(C#N)cc2)cc1` gave a viability at 30 µM of -4.4%. `COc1ccc(NC(=O)c2c(OC)cccc2OC)cc1` showed a viability at 30 µM of 10.2%.

Same assay, conditions: melan-a, 30 µM
In the case of `CCc1ccc(C(=O)Nc2cc(C)cc(C)c2)cc1`, the Activity was 41.5% and > 90%.

System: Cavia porcellus
Experiment: Antimelanogenic activity in guinea pig skin assessed as inhibition of UVB-induced pigmentation at 10 ug administered topically bid for 4 weeks
Format: functional, organism-based
Conditions: not given
In the case of `COc1cccc(C(=O)Nc2cc(C)cc(C)c2)c1`, the Activity was “Active”.
